According to patent US11617741B1, “Method for inhibiting growth of bacteria” (priority 2021, dated 2023):
≈ marks a conversion by molar mass, not a printed value. Marks after values point to notes of the source that are not given here.

Columns and labels:
E. coli = experiment: Minimum inhibitory and bactericidal concentration determination, Gram-negative control; format: cell-based, Escherichia coli
Experimental: (§1) The 96-well plate was organized as follows. Media (100 μl) were added to all wells.

B. subtilis 168 [1] = experiment: Minimum inhibitory concentration determination; format: cell-based, Bacillus subtilis
Experimental: as §1

glyQS T-box = experiment: qRT-PCR transcriptional read-through of T-box-regulated glyQS (confirmation of inhibition of T-box mechanism); format: cell-based, Bacillus subtilis 1A5; details: for T-Box targeting: confirmation of inhibition of T-box mechanism from qRT-PCR assay
Text: Sample preparation of RNA and cDNA.

S. aureus N315 (MRSA) = experiment: Antibiotic resistance frequency (fluctuation assay); format: cell-based, Staphylococcus aureus; details: MRSA plated on 64 μg/ml PKZ18-22 or 10 μg/ml gentamicin
Text: Gentamicin on BHI agar was used as a control.

S. aureus N315 = experiment: Checkerboard assay and FIC; format: cell-based, Staphylococcus aureus
Experimental: S. aureus N315 cultures were prepared identically to MIC determination in BHI media. The co-MICs were determined using the checkerboard method. In short, antibiotics to be tested with PKZ18 analogs were diluted 2-fold top to bottom (A to G rows) in a 96-well plate, PKZ18 analogs were diluted 2-fold right to left (columns 11-2 of the 96-well plate), and column 12 was used for vector, media, and growth controls. Each drug was therefore tested by itself and with every dilution of the other drug.
The synergistic and additive interactions were determined based on determined cutoffs using the equation
[formula] where MICAB is the lowest possible concentration of both drugs combined where there is no growth, and MICA and MICB are the MIC values of the individual drugs. For a synergistic drug interaction, the fractional inhibitory concentration (FIC) should be below 0.5, additive or indifferent effects are considered in an FIC range of 0.5 to <4, and an FIC value above 4 is considered antagonistic.

[2] = tested on: S. aureus N315 (MRSA isolate); experiment: Minimum inhibitory and bactericidal concentration determination; format: cell-based, Staphylococcus aureus
Experimental: as §1

S. aureus biofilm = experiment: MBEC-HTP biofilm model, combinations, Bliss independence model and CFU recovery; format: cell-based, Staphylococcus aureus
Experimental: This inherent resistance of bacteria in biofilms and the emergence of antibiotic-resistant bacteria has necessitated the drive to explore competent novel antimicrobial agents such as PKZ18 and the development of combinations of these novel antimicrobial agents with established antibiotics. We determined the minimum biofilm eradication concentration (MBEC) of compounds of Formula I in combination with vancomycin, gentamicin, rifampin, and tetracycline. Three independent experiments were conducted and required a checkerboard dilution to test various concentrations of the following combinations (compound of Formula I+each antibiotic) against S. aureus utilizing an established MBEC™-HTP biofilm model (Innovotech).
Briefly, an overnight culture of S. aureus was diluted to 1×10^5 cells/mL in cation-adjusted Mueller Hinton broth (MHB) supplemented with 1% human plasma and added to the wells of an MBEC plate. […] After incubation, the lid was removed and rinsed in PBS. Following treatment, a tetrazolium (2,3,5-triphenyl tetrazolium chloride, TTC) assay was performed to assess metabolic activity and viability. The lid was rinsed in PBS, transferred to a 96-well plate containing a 0.01% TTC solution in MHB, and incubated at 37° C. overnight. To dissolve the stain from the pegs, the lid was placed in a 96-well plate containing 96% ethanol and the OD of the wells was then read at 490 nm. Data was analyzed with the Bliss independence model using the Combenefit software.
After rinsing in PBS, designated pegs were snapped off the lid using sterile tweezers and placed in 1.5 mL Eppendorf tubes containing 200 μL PBS. Biofilm was disrupted from the pegs by sonicating the tubes for 15 min (Branson M8800H, Branson Ultrasonics, West Chester, Pa., USA), followed by vortexing for 10 s. Three independent serial dilutions were prepared for each sample and plated on tryptic soy agar (TSA) plates that were incubated overnight at 37° C. The plates were then imaged and colonies counted on a ColonyDoc-It™ Imaging station (UVP, Analytik Jena, Beverly, Mass., USA).

[3] = tested on: T-box controlled genes in MRSA; experiment: RNA sequencing of MRSA grown in minimal media; format: cell-based, Staphylococcus aureus
[4] = tested on: ileS and tyrS T-boxes in WT MRSA
Experimental: Sample preparation of RNA and cDNA. RNA extraction and cDNA preparation were conducted as previously reported. In short, guanidine thiocyanate (0.5 M final concentration)-treated and pelleted bacterial cultures were resuspended in TRIzol, lysed by beat beating with zirconia beads, and centrifuged.
The solution was transferred to fresh tubes, and the RNA was extracted with chloroform. The RNA was then pelleted with 100% isopropanol and washed with ice-cold 70% ethanol, resuspended in Millipore water, DNase treated, and extracted with another isopropanol precipitation and ethanol wash. The resulting RNA was quantified using a NanoDrop 3300 (Thermo Fisher), and the quality was assessed by running 1 μg on a denaturing agarose gel. DNA contamination was tested for by PCR followed by agarose gel electrophoresis. cDNA was generated from 1 μg of high-quality RNA using the SuperScript III reverse transcriptase protocol for random primers (Thermo Fisher).
Either 2-fold or 10-fold dilutions of cDNA were used, and amplification was monitored with Evagreen dye. The expression was normalized to either 23S (B. subtilis 1A5) or 16S (MRSA) and reported as percentage read-through of the T-boxes tested for, calculated using the threshold cycle (2^−ΔΔCT) method.

B. subtilis 168 [5] = tested on: B. subtilis 168
Experimental: Gentamicin on BHI agar was used as a control. In short, MRSA and B. subtilis were grown overnight in BHI, and 3-hour day cultures at the optical density of A620 of 0.1 were started for both organisms. The optical density after 3 hours of growth was measured; cultures were then pelleted and resuspended to give 10^11 CFU/ml by optical density. CFU of 10^11 per OD were plated in total; 100 μl of the cells were then plated on BHI agar containing either 128 μg/m1PKZ18 or 64 μg/m1PKZ18-22. Serial dilutions of the cells were plated on plain BHI agar in order to calculate the CFU/ml, which was calculated as the number of colonies found on the plates divided by the total number of bacteria plated. CFU means colony forming units, a measure of live bacteria.

[6] = tested on: planktonic growth of Staphylococcus
Experimental: An overnight culture of S. aureus (ATCC 29213) was diluted to 1×10^7 cells/mL in tryptic soy broth (TSB) supplemented with 10% human plasma (Innovative Research, Novi, Mich. USA) and added to the wells of an MBEC™-HTP Assay Biofilm Innoculator (Innovotech, Edmonton, AB, Canada). The plate was incubated overnight at 37° C. and shaken at 125 rpm. […] Control wells were without a COMPOUND OF Formula I. The treatment plate was incubated for 24 h at 37° C. after which the lid was removed, rinsed with PBS, and placed in a new 96-well plate containing TSB. The biofilm was removed from the assay lid into the recovery plate wells by sonication, a new plate cover was added, and the viability of the biofilm was determined after 24 h of incubation at 37° C. by reading the OD at 625 nm. Three independent experiments were conducted. Concentrations of interest were followed up with colony forming unit (CFU) recovery and scanning electron microscopy analysis. After conclusion of the MBEC assay, the minimum bactericidal concentration (MBC) was determined. The MBC is the lowest concentration of an antibacterial agent required to kill a particular bacterium. The peg lid from the MBEC assay was removed from the challenge plate and 20 μL of medium from each well of the challenge plate was removed and added to a new sterile 96-well plate filled with 180 μL TSB. […]

CC(C)Cc1ccc(-c2csc(NC(=O)C3C4CCC(C4)C3C(=O)O)n2)cc1 (centres unmarked) [PKZ18-22]
MIC E. coli (E. coli): > 256 µg/mL | MBC E. coli (E. coli; value in parentheses): > 256 µg/mL | bactericidal effect (B. subtilis 168 [1]; B. subtilis 168): bactericidal | MIC against B. subtilis 168 in minimal media (B. subtilis 168 [1]; minimal media): 4 µg/mL (≈ 10 µM) | MIC against B. subtilis 168 in rich media (B. subtilis 168 [1]; rich media): 16 µg/mL (≈ 40.1 µM) | inhibition of read-through compared with PKZ18 (glyQS T-box; 4 μg/ml of each drug, side by side in same biological replicate): significantly better than PKZ18 | T-box-controlled expression of glyQS (termination of read-through) (glyQS T-box; B. subtilis 1A5, increasing concentrations, minimal media): inhibited | T-Box targeting (glyQS T-box; Table 1): Yes | T-Box targeting (glyQS T-box; Table 2): Yes | resistance frequency (S. aureus N315 (MRSA)): 5.6×10^−12 | FIC of PKZ18-22 and gentamicin (S. aureus N315; both rich and minimal media, WT MRSA): 0.38 | fold decrease in the MIC of PKZ18-22 (S. aureus N315; in combination with gentamicin): 4 fold | fractional inhibitory concentration FIC (S. aureus N315; with ampicillin): 0.75 | fractional inhibitory concentration FIC (S. aureus N315; with chloramphenicol): 0.75 | fractional inhibitory concentration FIC (S. aureus N315; with gentamicin): 0.38 | fractional inhibitory concentration FIC (S. aureus N315; with kanamycin A): 0.38 | fractional inhibitory concentration FIC (S. aureus N315; with neomycin B): 0.38 | fractional inhibitory concentration FIC (S. aureus N315; with streptomycin): 0.75 | bactericidal effect ([2]; MRSA): bactericidal | fold reduction in MIC in minimal compared to rich media ([2]; MRSA strain S. aureus N315): 4 fold | MIC against S. aureus in minimal media ([2]; S. aureus N315, minimal media): 8^b μg/ml | MIC against S. aureus in rich media ([2]; S. aureus N315, rich media): 32^b μg/ml | MIC S. aureus N315 ([2]; Table 2): 32 µg/mL (≈ 80.3 µM) | MBC S. aureus N315 ([2]; Table 2, value in parentheses): 64 µg/mL (≈ 161 µM) | highest synergy score (Bliss) (S. aureus biofilm; PKZ18-22 25 μg/mL and gentamicin 16 μg/mL and 64 μg/mL): 87 | log reduction in CFU/mL in biofilm growth (S. aureus biofilm; PKZ18-22 25 μg/mL and gentamicin 64 μg/mL, 24 h exposure): ~5 log | biofilm CFU reduction with rifampin combination (S. aureus biofilm; PKZ18-22 25 μg/mL and rifampin 0.001 or 0.005 μg/mL, single dose 24 h): significantly greater reduction when compared to each treatment alone | maximal synergy score (Bliss) (S. aureus biofilm; PKZ18-22 25 μg/mL and vancomycin 4 μg/mL): 43 | cell reduction (S. aureus biofilm; combination of gentamicin/PKZ18-22, single dose 24 h challenge): > 99.9% | synergy with minocycline (S. aureus biofilm; single dose 24 h challenge): not synergistic | cysteine and histidine T-boxes (cysE-cysS and hisS-aspS operons) ([3]; 4 and 8 μg/ml): inhibited only by the higher concentration | read-through of alaS ([3]; 4 and 8 μg/ml): not inhibited | read-through reduction of tyrS ([3]; 4 and 8 μg/ml): not statistically significant | overall change in gene expression ([3]; 4 and 8 μg/ml vs untreated): large overall change in expression | genes under T-box control (out of the 12) with reduced expression ([3]; 4 or 8 μg/ml PKZ18-22): 8 | read-throughs of glyS, ileS, leuS, pheST, serS, thrS and valS ([3]; both concentrations (4 and 8 μg/ml), normalized to untreated): reduction | relative read-through of other riboswitch-controlled genes ([3]; non-T-box 5′UTR regulated genes): did not significantly change | relative read-through of ileS and tyrS ([4]; MRSA in minimal media, 4 μg/ml): decrease | read-through of ileS and tyrS ([4]; MRSA in rich media, 8 μg/ml): reduced | resistant colonies (B. subtilis 168 [5]): did not generate resistant colonies | planktonic growth over a range of concentrations [6]: killing curve
